Laboratory results from patent US10358446B2, “Bruton's tyrosine kinase inhibitors” (Zibo Biopolar Changsheng Pharmaceutical Co. Ltd., priority 2015, dated 2019).

Target: BTK (Homo sapiens (Human), UniProt Q06187)
Test: Btk kinase assay (HTRF)
Format: biochemical
Details: [ATP]=80 μM, BTK=3.4 nM; read-out: BTK Inhibition
Outline: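 BTK (3.4 nM) incubated 1 h with inhibitor, 80 μM ATP and 1 μM peptide substrate in 50 mM HEPES pH 7.0 with BSA and orthovanadate. Reaction stopped with EDTA plus Eu-antibody/XL665; HTRF 665/615 ratio read after 1 h, IC50 calculated relative to no-inhibitor and no-enzyme controls.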

Chain of BTK (Q06187 whole entry, species assumed): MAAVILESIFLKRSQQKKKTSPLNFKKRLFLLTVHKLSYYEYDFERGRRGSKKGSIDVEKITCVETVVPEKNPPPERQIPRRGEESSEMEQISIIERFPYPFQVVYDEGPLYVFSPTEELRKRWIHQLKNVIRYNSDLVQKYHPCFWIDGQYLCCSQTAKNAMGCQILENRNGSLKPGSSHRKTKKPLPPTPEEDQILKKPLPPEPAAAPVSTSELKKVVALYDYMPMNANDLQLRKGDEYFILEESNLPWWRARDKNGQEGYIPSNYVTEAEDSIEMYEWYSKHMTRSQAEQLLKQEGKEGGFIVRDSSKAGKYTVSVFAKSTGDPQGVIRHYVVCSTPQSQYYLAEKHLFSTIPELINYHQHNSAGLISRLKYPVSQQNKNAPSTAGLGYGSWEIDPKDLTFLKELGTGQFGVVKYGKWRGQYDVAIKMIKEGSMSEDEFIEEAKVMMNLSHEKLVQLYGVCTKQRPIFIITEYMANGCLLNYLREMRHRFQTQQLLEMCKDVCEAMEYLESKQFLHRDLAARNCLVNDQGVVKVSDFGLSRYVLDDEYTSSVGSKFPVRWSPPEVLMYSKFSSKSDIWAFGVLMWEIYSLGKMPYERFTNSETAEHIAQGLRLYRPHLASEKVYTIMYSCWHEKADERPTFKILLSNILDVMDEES

Row | SMILES | IC50 [nM]
1 | O=C(O)C(=O)N1CCCC(n2c(=O)n(-c3ccc(Oc4ccccc4)cc3)c3cnccc32)C1 (centres unmarked) [Example 192, 2-oxo-2-(3-(2-oxo-3-(4-phenoxyphenyl)-2,3-dihydro-1H-imidazo[4,5-c]pyridin-1-yl)piperidin-1-yl)acetic acid] | 1000 to 10000
2 | O=C(O)C1CCCC(n2c(=O)n(-c3ccc(Oc4ccccc4)cc3)c3cnccc32)C1 (centres unmarked) [Example 193, 3-(2-oxo-3-(4-phenoxyphenyl)-2,3-dihydro-1H-imidazo[4,5-c]pyridin-1-yl)cyclohexanecarboxylic acid] | 1000 to 10000
3 | NC(=O)C(=O)N1CCCC(n2c(=O)n(-c3ccc(Oc4ccccc4)cc3)c3cnccc32)C1 (centres unmarked) [Example 194, 2-oxo-2-(3-(2-oxo-3-(4-phenoxyphenyl)-2,3-dihydro-1H-imidazo[4,5-c]pyridin-1-yl)piperidin-1-yl)acetamide] | ≥ 10000
4 | C=CC(=O)N1CC[C@@H](n2c(=O)n(-c3ccc(OCc4ccc(F)cc4F)cc3)c3cnccc32)C1 [Example 199, (R)-1-(1-acryloylpyrrolidin-3-yl)-3-(4-((2,4-difluorobenzyl)oxy)phenyl)-1H-imidazo[4,5-c]pyridin-2(3H)-one] | 100 to 1000
5 | C=CC(=O)N1CC[C@@H](n2c(=O)n(-c3ccc(OCc4cccc(C(F)(F)F)c4)c(Cl)c3)c3cnccc32)C1 [Example 200, (R)-1-(1-acryloylpyrrolidin-3-yl)-3-(3-chloro-4-((3-(trifluoromethyl)benzyl)oxy)phenyl)-1H-imidazo[4,5-c]pyridine-2(3H)-one] | 100 to 1000
6 | C=CC(=O)N1CC[C@@H](n2c(=O)n(-c3ccc(OCc4ccc(F)cc4F)c(Cl)c3)c3cnccc32)C1 [Example 202, (R)-1-(1-acryloylpyrrolidin-3-yl)-3-(3-chloro-4-((2,4-difluorobenzyl)oxy)phenyl)-1H-imidazo[4,5-c]pyridin-2(3H)-one] | 100 to 1000
7 | C=CC(=O)N1CC[C@@H](n2c(=O)n(-c3ccc(OCc4ccccc4C(F)(F)F)c(Cl)c3)c3cnccc32)C1 [Example 203, (R)-1-(1-acryloylpyrrolidin-3-yl)-3-(3-chloro-4-((2-(trifluoromethyl)benzyl)oxy)phenyl)-1H-imidazo[4,5-c]pyridin-2(3H)-one] | 100 to 1000
8 | C=CC(=O)N1CC[C@@H](n2c(=O)n(-c3ccc(OCc4ccccn4)c(Cl)c3)c3cnccc32)C1 [Example 204, (R)-1-(1-acryloylpyrrolidin-3-yl)-3-(3-chloro-4-(pyridin-2-ylmethoxy)phenyl)-1H-imidazo[4,5-c]pyridin-2(3H)-one] | 100 to 1000
9 | C=CC(=O)N1CC[C@@H](n2c(=O)n(-c3ccc(OCc4ccc(C(F)(F)F)cc4)c(Cl)c3)c3cnccc32)C1 [Example 205, (R)-1-(1-acryloylpyrrolidin-3-yl)-3-(3-chloro-4-((4-(trifluoromethyl)benzyl)oxy)phenyl)-1H-imidazo[4,5-c]pyridin-2(3H)-one] | 100 to 1000
10 | C=CC(=O)N1CC[C@@H](n2c(=O)n(-c3ccc(OCc4cc(F)ccc4F)c(Cl)c3)c3cnccc32)C1 [Example 206, (R)-1-(1-acryloylpyrrolidin-3-yl)-3-(3-chloro-4-((2,5-difluorobenzyl)oxy)phenyl)-1H-imidazo[4,5-c]pyridin-2(3H)-one] | 100 to 1000
11 | C=CC(=O)N1CC[C@@H](n2c(=O)n(-c3ccc(OCc4cc(F)cc(F)c4)c(Cl)c3)c3cnccc32)C1 [Example 207, (R)-1-(1-acryloylpyrrolidin-3-yl)-3-(3-chloro-4-((3,5-difluorobenzyl)oxy)phenyl)-1H-imidazo[4,5-c]pyridin-2(3H)-one] | 100 to 1000
12 | C=CC(=O)N1CC[C@@H](n2c(=O)n(-c3ccc(OCc4ccc(Cl)cc4Cl)c(Cl)c3)c3cnccc32)C1 [Example 208, (R)-1-(1-acryloylpyrrolidin-3-yl)-3-(3-chloro-4-((2,4-dichlorobenzyl)oxy)phenyl)-1H-imidazo[4,5-c]pyridin-2(3H)-one] | 100 to 1000
13 | C=CC(=O)N1CC[C@@H](n2c(=O)n(-c3ccc(OCc4cc(F)ccc4F)cc3)c3cnccc32)C1 [Example 209, (R)-1-(1-acryloylpyrrolidin-3-yl)-3-(4-((2,5-difluorobenzyl)oxy)phenyl)-1H-imidazo[4,5-c]pyridin-2(3H)-one] | 100 to 1000
14 | C=CC(=O)N1CC[C@@H](n2c(=O)n(-c3ccc(OCc4cccc(C(F)(F)F)c4)cc3)c3cnccc32)C1 [Example 211, (R)-1-(1-acryloylpyrrolidin-3-yl)-3-(4-((3-(trifluoromethyl)benzyl)oxy)phenyl)-1H-imidazo[4,5-c]pyridin-2(3H)-one] | 100 to 1000
15 | C=CC(=O)N1CC[C@@H](n2c(=O)n(-c3ccc(OCc4ccc(C(F)(F)F)cc4)cc3)c3cnccc32)C1 [Example 212, (R)-1-(1-acryloylpyrrolidin-3-yl)-3-(4-((4-(trifluoromethyl)benzyl)oxy)phenyl)-1H-imidazo[4,5-c]pyridin-2(3H)-one] | 100 to 1000
16 | C=CC(=O)N1CC[C@@H](n2c(=O)n(-c3ccc(OCc4ccccn4)cc3)c3cnccc32)C1 [Example 213, (R)-1-(1-acryloylpyrrolidin-3-yl)-3-(4-(pyridin-2-ylmethoxy)phenyl)-1H-imidazo[4,5-c]pyridin-2(3H)-one] | 1000 to 10000

Other lines, results leading:

Row | IC50 [nM] | SMILES
17 | ≤ 10 | C=CC(=O)N1CC[C@@H](n2c(=O)n(-c3ccc(Oc4cccc(OC)c4F)cc3)c3cnccc32)C1 [Example 191, (R)-1-(1-acryloylpyrrolidin-3-yl)-3-(4-(2-fluoro-3-methoxyphenoxy)phenyl)-1H-imidazo[4,5-c]pyridin-2(3H)-one]
18 | 10 to 100 | C=CC(=O)Nc1cccc(-n2c(=O)n(-c3ccc(OCc4cc(F)c(F)cc4F)cc3)c3cnccc32)c1 [Example 195, N-(3-(2-oxo-3-(4-((2,4,5-trifluorobenzyl)oxy)phenyl)-2,3-dihydro-1H-imidazo[4,5-c]pyridin-1-yl)phenyl)acrylamide]
19 | 100 to 1000 | C=CC(=O)Nc1cccc(-n2c(=O)n(-c3ccc(OCc4ccccn4)cc3)c3cnccc32)c1 [Example 196, N-(3-(2-oxo-3-(4-(pyridin-2-ylmethoxy)phenyl)-2,3-dihydro-1H-imidazo[4,5-c]pyridin-1-yl)phenyl)acrylamide]
20 | 100 to 1000 | C=CC(=O)N1CC[C@@H](n2c(=O)n(-c3ccc(OCc4ccccc4)c(Cl)c3)c3cnccc32)C1 [Example 197, (R)-1-(1-acryloylpyrrolidin-3-yl)-3-(4-(benzyloxy)-3-chlorophenyl)-1H-imidazo[4,5-c]pyridin-2(3H)-one]
21 | 100 to 1000 | C=CC(=O)N1CC[C@@H](n2c(=O)n(-c3ccc(OCc4ccc(Cl)c(Cl)c4)cc3)c3cnccc32)C1 [Example 198, (R)-1-(1-acryloylpyrrolidin-3-yl)-3-(4-((3,4-dichlorobenzyl)oxy)phenyl)-1H-imidazo[4,5-c]pyridin-2(3H)-one]
22 | 10 to 100 | C=CC(=O)N1CC[C@@H](n2c(=O)n(-c3ccc(OCc4ccc(F)c(F)c4)c(Cl)c3)c3cnccc32)C1 [Example 201, (R)-1-(1-acryloylpyrrolidin-3-yl)-3-(3-chloro-4-((3,4-difluorobenzyl)oxy)phenyl)-1H-imidazo[4,5-c]pyridine-2(3H)-one]
23 | 10 to 100 | C=CC(=O)N1CC[C@@H](n2c(=O)n(-c3ccc(OCc4ccccc4C(F)(F)F)cc3)c3cnccc32)C1 [Example 210, (R)-1-(1-acryloylpyrrolidin-3-yl)-3-(4-((2-(trifluoromethyl)benzyl)oxy)phenyl)-1H-imidazo[4,5-c]pyridine-2(3H)-one]
